What was measured:
[1] = test system: callus derived from scutellum of mature embryos of Oryza sativa cv. Taipei 309; assay: Rice callus transformation (Agrobacterium) with cyanamide selection; format: cell-based; settings: for Calli able to regenerate: 15 mg/l cyanamide
Protocol: Described below is the method used for transformation of callus derived from scutellum of mature embryos of Oryza sativa cv. Taipei 309 using Agrobacterium tumefaciens strain LBA1119-pMOG1295 (harboring the cah-gene) and strain LBA1119-pMOG1253 (control). Sterile dehusked rice seeds were germinated on plates containing Callus Induction Medium (CIM) in the dark at 28° C. (The contents of various media can be found in Table 5). After 3 weeks embryogenic callus derived from the scutellum is isolated and subcultured on the same medium under the same conditions. After 2-3 weeks embryogenic calli were cut in segments of approximately 2-3 mm and cultured plates containing CIM for 4 days. The Agrobacterium strains used in this study harbored a rifampicin selection marker in a C 58 chromosomal background. The construction of the helper strain EHA105 is described by Hood et al. (1993). Agrobacteria were grown for 4 days on plates containing AB medium with antibiotics (rifampicin 20 mg/l, kanamycin 100 mg/l ). Agrobacteria were collected in LIM and the OD600 was adjusted till 1.0-1.5. This suspension was used for cocultivation. Calli were incubated for 10 minutes with the Agrobacterium suspension and dried on sterile filter paper to remove excess of bacteria. Calli were cultured for 48 h on Coculture Medium (COM) plates at 25° C. in the dark. 50 pMOG1295 calli and 20 pMOG1253 calli were cultured per concentration of cyanamid. The following concentrations of cyanamide were used: 0, 15, 30, 60, 100, 150, 200, 300 and 500 mg/l. Hygromycin was applied in a concentration of 50 mg/l. Calli were incubated on First Selection Medium (FSM) plates containing several concentrations of cyanamide or hygromycin at 28° C. in the dark. After 3 weeks the calli were transferred to Embryo Induction Medium I (EIM I) containing the same concentration of cyanamide or hygromycin . After another 3 weeks the calli were subcultured on Embryo Induction Medium II (EIM II) containing the same concentration of cyanamide or an increased concentration of hygromycin (75 mg/l). Calli were transferred to Shoot Induction Medium (SIM) containing the same concentration of cyanamide as during FSM, EIM I, EIM II and were cultured under 12 hours light period (2600 LUX) and 12 hours dark at 28 ° C. Approximately 3 weeks after transferring calli to SIM, shoots were regenerating and excised and placed in jars containing Pre-Greenhouse Medium (PGM). […] At 15 mg/l cyanamide the regeneration frequency of callus from both constructs was the same (pMOG1253 7 out of 16 calli were able to regenerate, pMOG1295 17 out of 44).

[2] = test system: BMS cells; assay: Maize killing curve; format: cell-based; settings: for Observations (light microscope) / % dead cells (light microscope): Day 15; for % dead cells (light microscope): clumps of cells
Protocol: Stock solutions of cyanamide were prepared in water at 10 and 100 mg/ml and filter sterilised. Aliquots were stored at −20° C. Media were prepared by adding MS medium (4.4 g), sucrose (20 g), 2,4-D (2.0 mg) and agar (8 g) to 1 litre of water. […] BMS liquid was prepared as above minus agar. BMS cells were added to media containing cyanamide in three ways:
a. BMS cell suspension added to falcon tube and liquid removed. Then the BMS cells were arranged on the surface of the agar in clumps of approximately 5 mm in diameter, 5 clumps per plate, 3 plates per concentration, while on the base of each petri dish the outline of each clump was marked;
b. Approximately 0.5 ml pack cell volume plus 1.5 ml BMS liquid added to surface of agar and the cells were spread finely over surface of agar. Three plates per treatment were set up.
c. Approximately 0.5 ml pack cell volume plus 1.5 ml BMS liquid were added to filter paper overlying agar. Cells were spread evenly over surface of filter. One plate per treatment was set up.
The plates were sealed with micropore tape and incubated at 25° C. in the dark. […]
Samples were taken from the clumps of cells on all levels of cyanamide for observation under a light microscope. With increasing levels of cyanamide there were increasing numbers of dead cells where the cell contents had shrunk away from the cell wall, and an increase in the number of dark bodied starch grains. Cells were observed resuspended in water and with FDA stain under UV light.

[3] = pMOG1295, 30 mg/l cyanamide, 50 calli cultured

With `N#CN` [Cyanamide] the Callus formation ([1]; cyanamide 100 mg/l or higher, pMOG1295 and pMOG1253 calli) was “No calli were formed”, the “Calli able to regenerate” value ([1]; pMOG1253 (control)) was 7 out of 16 and the “Calli able to regenerate” value ([1]; pMOG1295 (cah-gene)) was 17 out of 44. For the same molecule, the “Calli able to be regenerated” value [1, 3] was 6, the “Calli showing green callus development” value [1, 3] was 11 and the “Observations (light microscope)” value ([2]; 10 mg/l) was “Signs of stress”. The “% dead cells (light microscope)” value ([2]; 10 mg/l) was “Approx 5% dead”, the “Growth of BMS cells” value ([2]; 10 mg/l, after 15 days) was “reduction in growth of BMS cells on 10 mg/l was still very clear” and the “Observations (light microscope)” value ([2]; 30 mg/l) was “Striking differences from control cells”. The “% dead cells (light microscope)” value ([2]; 30 mg/l) was “Approx 15-20% dead”, the “Growth of BMS cells” value ([2]; 50 mg/l plus, after 15 days) was “showed no signs of growth” and the “Observations (light microscope)” value ([2]; 50 mg/l) was “Increasing number of dead cells and accumulation of starch”. For the same molecule, the “% dead cells (light microscope)” value ([2]; 50 mg/l) was “Approx 50% dead”, the “Observations (light microscope)” value ([2]; 100 mg/l) was “Majority of cell dead” and the “% dead cells (light microscope)” value ([2]; 100 mg/l) was “Approx 90% dead”. The “Observations (light microscope)” value ([2]; 150 mg/l) was “Majority of cells dead”, the “% dead cells (light microscope)” value ([2]; 150 mg/l) was “Approx 95-98% dead” and the “Colour of BMS cells” value ([2]; all levels of cyanamide, after 8 days) was “no browning of cells was observed”. The “Growth of BMS cells” value ([2]; cells spread over surface of media, 10 mg/l, after 8 days) was “significant reduction in growth”, the “Cell density of BMS cells” value ([2]; cells spread over surface of media, 30 mg/l, after 8 days) was “slight increase in cell density” and the “Growth of BMS cells” value ([2]; clumps and cells spread over agar, 30 mg/l plus, after 15 days) was “notable reduction in growth”. For the same molecule, the “Growth of BMS cell clumps” value ([2]; clumps on agar, 10 mg/l, after 8 days) was “had not outgrown their outline but the height of the clumps had increased”, the “Cyanamide concentration with maximum effect on growth” value ([2]; clumps on agar, after 8 days) was 50 mg/L and the “Growth of BMS cell clumps” value ([2]; repeated experiment, 10 mg/l) was “slight reduction in growth”. For the same molecule, the “Colour of BMS cell clumps” value ([2]; repeated experiment, above 50 mg/l) was “slight orange tinge”, the “Growth of BMS cells” value ([2]; repeated experiment, cells spread over agar or on filters, 10 mg/l) was “slight growth (approximately doubling of the number of original cells)” and the “Growth of BMS cells” value ([2]; repeated experiment, cells spread over agar or on filters, 20 mg/l and higher) was “limited of growth”. For the same molecule, the “Growth of BMS cell clumps” value ([2]; repeated experiment, from 20 mg/l on) was “showed no outgrowing from their original outline”.

Reference: patent publication US6660910B1, “Selection marker” (Syngenta Mogen B.V., priority 1997, dated 2003)
